Reference: patent US12516237B2, “Alkyl lactone-derived corrosion inhibitors” (ChampionX LLC, priority 2018, dated 2026)

Experiment: Bubble cell test: corrosion rate of steel electrode by aqueous linear polarization resistance (LPR) in CO2-saturated synthetic oilfield brine/oil
Conditions: 15 h after dosing, 80° C., 80% water cut, CO2 purge, C1018, samples 10 ppm of 20% active + 2% 2ME; for % Protection (corrosion inhibition): relative to baseline corrosion rate before dosing, comparatives 20 ppm of 10% active + 1% 2ME; for Inhibited Corrosion Rate: comparatives 20 ppm of 10% active + 1% 2ME (same active concentration)
Source text: The bubble cell test was used to investigate the effectiveness of alkyl lactone-derived hydroxyamides as corrosion inhibitors. This test measures the corrosion rate of a steel electrode by aqueous linear polarization resistance (LPR). The steel electrodes (C1018) were placed in a bath of synthetic oilfield brine which was deaerated with carbon dioxide. The corrosion rate of the electrode was compared in the absence or presence of an alkyl lactone-derived hydroxyamide.
The synthetic oilfield brine contained about 3 wt % of sodium chloride, and the oil included a synthetic oil of INT-200 and xylene. The ratio of water to oil was 80:20. The oil/brine was placed into bubble cells and purged with CO2. The oil/brine was continually purged with CO2 to saturate the oil/brine prior to starting the test. The test cells were blanketed with CO2 throughout the duration of the test to maintain saturation. The bubble cells were stirred at 100 revolutions per minute (rpm) for the duration of the test to maintain thermal equilibrium at 80° C. The electrodes were all cleaned and polished prior to testing.
After about 3 hours of pre-corrosion time (i.e. without a corrosion inhibitor) 10 ppm of a 20% active of an alkyl-lactone chemistry (shown in Table 2 and prepared as described in Example 1) with 2% 2-mercaptoethanol (2ME) solvent was added. Comparison with a benzyl ammonium chloride quarternary chemistry and imidazoline chemistry was made at the same active concentration as the alkyl lactone together with 2ME (at the same dose based on chemistry and 2ME activity—i.e. these were dosed at twice the concentration because the active and 2ME in the test blend was half).

| SMILES | % Protection (corrosion inhibition) | Inhibited Corrosion Rate |
| --- | --- | --- |
| CCCCCCC(O)CCCC(=O)NCCCN(C)C (stereo not drawn) [Sample 2, δ-Undecalactone/DMAPA] | 43% | 151 mpy |
| CCCCCCCC(O)CCC(=O)NCCCN(C)C (stereo not drawn) [Sample 1, γ-Undecalactone/DMAPA] | 37% | 181 mpy |
| CCCCC(O)CCC(=O)NCCCN(C)C (stereo not drawn) [Sample 3, γ-Octalactone/DMAPA] | 31% | 177 mpy |
